Assay results: patent US6518005B2, “Silver halide multilayer color photographic material” (Ferrania, S.p.A., priority 2000, dated 2003)

What was measured:
[1] = Absorption of methanol solutions of the dyes (λmax and density at 400, 450, 500 nm); assay type: physicochemical; details: for D400: density measured at 400 nm; for D400 / D450 / D500: methanol solution with density 0.6 at λmax; for D450: density measured at 450 nm; for D500: density measured at 500 nm; for λmax (nm): methanol solution, density 0.6 at λmax; for spectral region absorbed (in words): methanol solutions, from the data of Table 1
[2] = Solubility in tricresylphosphate and crystallization tendency on cooling; assay type: physicochemical; details: for Solubility: in tricresylphosphate, under stirring at 60° C.; for Not-to-Crystallize Tendency: tricresylphosphate solution cooled at room temperature
Protocol: The compounds shown in Table 2 were added with a quantity of tricresylphosphate under stirring at 60° C. up to obtain a limpid solution. The samples were then cooled at room temperature and the crystallization tendency thereof was evaluated.

SMILES	D400 [1]	D450 [1]	D500 [1]	λmax (nm) [1]	spectral region absorbed (in words) ([1]; listed as Sample 11)	Solubility [2]	Not-to-Crystallize Tendency [2]	spectral region absorbed (in words) ([1]; listed as Sample 12)	spectral region absorbed (in words) [1]	Not-to-Crystallize Tendency ([2]; listed as Sample 7)
CCCCS(=O)(=O)Nc1ccc(C2=NOC(=O)/C2=C\C2CN(CCC(=O)OCC)c3ccccc32)cc1 (single isomer, unassigned) [B]	0.09	0.53	0.10	463 nm					mainly absorb in the blue region, but that the green region (500-600 nm) is also interested	
CCCCS(=O)(=O)Nc1ccc(C2=NOC(=O)/C2=C\C2CN(CCC(=O)OCC)c3ccccc32)cc1 (centres unmarked) [C]	0.45	0.03	0.00	377 nm	mainly absorb in the ultraviolet					
CCCCS(=O)(=O)Nc1ccc(C2=NOC(=O)/C2=C\C2CN(CCC(=O)OCC)c3ccccc32)cc1 (centres unmarked) [Compound G]	0.27	0.55	0.00	438 nm		good	not good			
CCCCS(=O)(=O)Nc1ccc(C2=NOC(=O)/C2=C\C2CN(CCC(=O)OCC)c3ccccc32)cc1 (centres unmarked) [D]	0.35	0.00	0.00	374 nm				mainly absorb in the ultraviolet		
CCCCS(=O)(=O)Nc1ccc(C2=NOC(=O)/C2=C\C2CN(CCC(=O)OCC)c3ccccc32)cc1 (centres unmarked) [E]	0.26	0.50	0.00	437 nm		good	not good			
CCCCS(=O)(=O)Nc1ccc(C2=NOC(=O)/C2=C\C2CN(CCC(=O)OCC)c3ccccc32)cc1 (centres unmarked) [F]	0.28	0.54	0.00	437 nm		good	not good			

Further lines, with some results ahead:

D400 [1]	D450 [1]	D500 [1]	λmax (nm) [1]	spectral region absorbed (in words) ([1]; listed as Sample 11)	Solubility [2]	Not-to-Crystallize Tendency [2]	spectral region absorbed (in words) ([1]; listed as Sample 12)	SMILES	spectral region absorbed (in words) [1]	Not-to-Crystallize Tendency ([2]; listed as Sample 7)
0.41	0.24	0.00	421 nm					C=CCn1cccc1/C=C1\C(=O)ON=C1c1ccc(NS(=O)(=O)CCCC)cc1 [Compound I-2]		
0.48	0.08	0.00	418 nm					COc1ccc(C2=NOC(=O)/C2=C\c2ccc[nH]2)cc1 [Compound I-3]		
0.44	0.22	0.00	420 nm					CCOC(=O)CCn1cccc1/C=C1\C(=O)ON=C1c1ccc(OC)cc1 [Compound I-4]		
0.47	0.21	0.00	419 nm					CCOC(=O)Cn1cccc1/C=C1\C(=O)ON=C1c1ccc(OC)cc1 [Compound I-5]		
0.52	0.17	0.00	415 nm					C=CCn1cccc1/C=C1\C(=O)ON=C1C(C)(C)C [Compound I-6]		
0.42	0.03	0.00	423 nm			good		CCCCS(=O)(=O)Nc1ccc(C2=NOC(=O)/C2=C\c2cccn2C(CC)C(=O)OCCOCC)cc1 (centres unmarked) [Compound I-7]		do not exhibit any tendency to crystallize
